The results in this text go back to ChEMBL document CHEMBL1201862, “PubChem BioAssay data set” (2004).

Structures are written as SMILES.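 Growth conditions: 96-well plates. Treatment: test compound, 48 hours, 5 concentrations. Analysis: linear interpolation between bracketing concentrations; unreached endpoints set to highest concentration. GI50 is the concentration that inhibits growth by half.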 Active and inactive are the calls of the source. Cut-off read from the data, not from the text of the source: active = GI50 up to about 1.1 µM and inactive = higher.

Among the test systems are OVCAR-8; ACHN; LOX IMVI; NCI/ADR-RES; 786-0; OVCAR-3; Malme-3M; U-251; A549; HCC 2998; SNB-19; NCI-H23; MDA-MB-231; SK-MEL-2; MDA-MB-435; EKVX; SK-MEL-28; UACC-62; HL-60; OVCAR-5.
What all share (experiment): NCI tumour cell line growth inhibition, 48 h

On to `CCN(CC)C(=O)Cn1c(C)cc2ccccc21`, for which the GI50 in the assay with OVCAR-8, with ACHN, with LOX IMVI, with NCI/ADR-RES, in the assay on 786-0 and in the assay on OVCAR-3 was > 100 µM (inactive) in each case. Besides, the GI50 with Malme-3M, in the assay on U-251, with A549, in the assay with HCC 2998, with SNB-19 and in the assay on NCI-H23 was > 100 µM (inactive) in each case. Further, the GI50 in the assay with MDA-MB-231, in the assay with SK-MEL-2, in the assay with MDA-MB-435, with EKVX, with SK-MEL-28 and in the assay with UACC-62 was > 100 µM (inactive) throughout. In addition, the GI50 in the assay on HL-60 and in the assay with OVCAR-5 was > 100 µM (inactive) throughout.
As for `CCC1CC(C)C(O)/C=C/C=C/CC(C)OC(=O)CC(O)C(OC)C1OC1OC(C)CC(O)(C(C)=O)C1O` (stereo not given), the GI50 is > 100 µM (inactive) in the assay with OVCAR-8; 49.5 µM (inactive) with ACHN; > 100 µM (inactive) in the assay on LOX IMVI; 49 µM (inactive) with NCI/ADR-RES; > 100 µM (inactive) in the assay on 786-0; 20.3 µM (inactive) with OVCAR-3. Besides, the GI50 was 38.8 µM (inactive) with Malme-3M; 60.4 µM (inactive) in the assay with U-251; > 100 µM (inactive) in the assay with A549; 21.7 µM (inactive) in the assay with HCC 2998; 19.3 µM (inactive) in the assay with SNB-19; 45.2 µM (inactive) with NCI-H23. Besides, the GI50 with MDA-MB-231 is 16 µM (inactive); with SK-MEL-2 it was 39.1 µM (inactive); in the assay on MDA-MB-435, > 100 µM (inactive); in the assay with EKVX, 57.7 µM (inactive); in the assay on SK-MEL-28, > 100 µM (inactive); with UACC-62 it was > 100 µM (inactive). For the same compound, the GI50 in the assay with HL-60 was 21.8 µM (inactive); in the assay with OVCAR-5, > 100 µM (inactive).
Regarding `CCOC(=O)C1=C(C(=O)OCC)SC2(S1)C(C(=O)OCC)=C(C(=O)OCC)Sc1c2ssc1=O`, the GI50 is 1.6 µM (inactive) in the assay on OVCAR-8; 1.72 µM (inactive) in the assay on ACHN; 0.239 µM (active) in the assay on LOX IMVI; 2.71 µM (inactive) in the assay with NCI/ADR-RES; 0.811 µM (active) in the assay on 786-0; 1.69 µM (inactive) with OVCAR-3. In addition, the GI50 with Malme-3M was 1.98 µM (inactive); with U-251, 1.93 µM (inactive); with A549, 2.26 µM (inactive); in the assay with HCC 2998, 2.42 µM (inactive); with SNB-19, 3.84 µM (inactive); with NCI-H23 it was 1.93 µM (inactive). The GI50 in the assay on MDA-MB-231 is 2 µM (inactive); with SK-MEL-2, 2.17 µM (inactive); with MDA-MB-435, 1.99 µM (inactive); in the assay with EKVX it was 2.34 µM (inactive); in the assay with SK-MEL-28, 1.84 µM (inactive); in the assay with UACC-62, 1.94 µM (inactive). Also, the GI50 in the assay with HL-60 is 0.279 µM (active); in the assay with OVCAR-5, 4.7 µM (inactive).
On to `CC12C=CC(=O)C=C1CCC1C3CCC(O)(C(=O)CO)C3(C)CC(O)C12F` (stereo not given), for which the GI50 in the assay with OVCAR-8, in the assay with ACHN, in the assay on LOX IMVI, in the assay on NCI/ADR-RES, in the assay with 786-0 and in the assay on OVCAR-3 was > 100 µM (inactive) throughout. In addition, the GI50 with Malme-3M, in the assay on U-251, with A549, in the assay on HCC 2998, in the assay with SNB-19 and in the assay on NCI-H23 was > 100 µM (inactive) each time. For the same compound, the GI50 was > 100 µM (inactive) in the assay with MDA-MB-231; > 100 µM (inactive) with SK-MEL-2; > 100 µM (inactive) in the assay on MDA-MB-435; 43.5 µM (inactive) with EKVX; > 100 µM (inactive) with SK-MEL-28; > 100 µM (inactive) in the assay with UACC-62. Besides, the GI50 in the assay with HL-60 is > 100 µM (inactive); with OVCAR-5, > 76.4 µM (inactive).
With `CCOC(=O)c1[nH]c(Br)c(-c2ccc(OC)c(OC)c2)c1Br`, the GI50 with OVCAR-8 is 0.0423 µM (active); in the assay on ACHN, 0.0242 µM (active); in the assay on LOX IMVI, 0.0179 µM (active); with NCI/ADR-RES, 0.00434 µM (active); with 786-0 it was 0.0334 µM (active); with OVCAR-3, 0.0163 µM (active). Besides, the GI50 in the assay with Malme-3M is 1.71 µM (inactive); in the assay on U-251, 0.0311 µM (active); with A549, 0.287 µM (active); in the assay on HCC 2998 it was 0.199 µM (active); in the assay on SNB-19 it was 0.181 µM (active); in the assay with NCI-H23 it was 0.0891 µM (active). In addition, the GI50 in the assay with MDA-MB-231 was 0.321 µM (active); in the assay on SK-MEL-2, 0.0336 µM (active); with MDA-MB-435, 0.0091 µM (active); in the assay with EKVX, 4.12 µM (inactive); in the assay on SK-MEL-28, 0.0562 µM (active); with UACC-62, 0.0418 µM (active). For the same compound, the figures for the GI50 in the assay on HL-60 and in the assay with OVCAR-5 were 0.0679 µM (active) and 5.27 µM (inactive), respectively.
